# Experimental data: PubChem BioAssay AID624491 (Broad Institute, 2012)
# Activity calls are given as the source filed them.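 The calls were made as follows: active = fitted curve crossing a set activation limit at or below the highest valid dose tested; inconclusive = flat fit at 30 to 70% activation, or poor fit; inactive = the rest, including signal decreases.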
# System: D54 ERlucT glycosylation luciferase reporter, luminescence, 24 h
# Assay: blockers of NLG process in reporter cells – D54 ERlucT cells, luminescence, cherry-picks, dose response (AID 624491);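 also: signal gain reflects blocked N-linked glycosylation of a luciferase reporter; actives raise luciferase signal so AC26 marks activators of the reporter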
row,Structure (SMILES),AC26
1,Cc1cccn2c(=O)c3cc(C(=O)NC4CCCCC4)n(C)c3nc12,10200 nM
2,Cc1cc2c(cc(C(=O)OCC(=O)NCc3ccco3)n2C)s1,198 nM
3,C=CCn1c(O)c(/C=C2/C=CC=N2)c(=O)[nH]c1=O,3080 nM
4,CCN(CC)CCOc1c(Br)ccc2c1sc1nc3n(c(=O)c12)CCC3,3070 nM
5,CCOC(=O)C1=C(Cc2ccc(F)cc2)C(=O)c2ccccc2C1=O,6390 nM
6,CCOc1ccccc1C1CC(=O)Nc2cc3c(cc21)OCO3 (centres undefined),4370 nM
7,COc1ccc2c(c1)C(=O)N1[C@H]3c4cc(Br)ccc4OC[C@@H]3[C@H](c3ccccc3)[C@]1(C)C(=O)N2,851 nM
8,O=C(Nc1ccc(S(=O)(=O)N2CCOCC2)cc1)c1cc(-c2cc(Cl)ccc2O)n[nH]1,1260 nM
9,CC1CN(c2nc(-c3ccccc3)nnc2-c2ccccc2)CC(C)O1 (centres undefined),368 nM
10,Cc1ccc2cc(CN(CCCN(C)C)C(=O)NCc3ccccc3)c(=O)[nH]c2c1C,69.1 nM
11,COCCNC(=O)c1cc(-c2cccs2)on1,4600 nM
12,Cc1ccc(C(=O)N/C(=C\c2cccs2)C(=O)NCCc2c[nH]c3ccccc23)cc1C,4860 nM
13,COc1cc(/C=N/n2cnc3scc(-c4cccs4)c3c2=O)cc(OC)c1OC,701 nM
14,CCOC(=O)/C=C/C(=O)Nc1ccc(S(=O)(=O)N(C)c2ccccc2)cc1,> 5000 nM (inactive)
15,CC(C)(C)c1ccc(C(=O)O/N=C(\N)Cc2cccs2)cc1,11800 nM
16,O=C(N/N=C\C=C\c1ccc([N+](=O)[O-])o1)c1cccs1,7850 nM
17,Cc1cc(NC(=O)COC(=O)c2ccc(S(=O)(=O)N3CCCc4ccccc43)cc2)no1,665 nM
18,COc1ccc(OC)c(NS(=O)(=O)c2ccc(SC)cc2)c1,7410 nM
19,COc1cccc(C(=O)Nc2ccc(N3CCN(C(=O)c4ccco4)CC3)cc2)c1,10700 nM
20,CCN(CC)CCCNc1nc2cc(OC)c(OC)cc2c2nc(-c3ccccc3)nn12,811 nM
21,CC(=O)c1c(C)[nH]c(C(=O)Nc2nccs2)c1C,2200 nM
22,O=c1cc(-c2ccccc2)[nH]c2cc(F)ccc12,327 nM

row,Structure (SMILES),AC26
1,Cc1ccc(C(=O)N/C(=C\c2cccs2)C(=O)NCCc2c[nH]c3ccccc23)cc1,378 nM
2,COc1ccc2nc(C)cc(Nc3ccc(N4CCN(C)CC4)cc3)c2c1,694 nM
3,COc1cccc(N2[C@@H](CC(C)=O)c3ccc(/C=C/C(C)=O)cc3S2(=O)=O)c1,3280 nM
4,COc1ccc(C(=O)c2cc([N+](=O)[O-])ccc2N2CCN(C)CC2)cc1,2330 nM
5,Cc1cccc2c1NC(=O)/C2=C\C(=O)c1cccs1,4260 nM
6,CCN(CC)S(=O)(=O)c1cccc(C(=O)N/N=C/c2ccc([N+](=O)[O-])o2)c1,2340 nM
7,Cc1cc(C)cc(C(=O)N2CC(=O)Nc3ccccc32)c1,265 nM
8,CN1CCN(C(c2ccc(Br)cc2)c2cc(Cl)c3cccnc3c2O)CC1 (centres undefined),1810 nM
9,COc1ccccc1N=CC1=C(O)CC(c2ccccc2)CC1=O (centres undefined),2740 nM
10,COc1cc(-n2c(N)c(C(=O)NCc3ccco3)c3nc4ccccc4nc32)cc(OC)c1OC,2090 nM
11,COc1ccc(/C=C2\SC(=S)N(CCC(=O)NC3CCCC3)C2=O)cc1OC,6270 nM
12,CCCOc1ccccc1C1CC(=O)NC2=C1C(=O)CCC2 (centres undefined),2250 nM
13,COc1cc2c(c(OC)c1OC)-c1ccc(OC)c(=O)cc1[C@@H](N(C)CC#CCO)CC2,380 nM
14,COc1ccc(CC(=O)N(Cc2ccccc2)c2ccc(C)cc2)cc1S(=O)(=O)N1CCOCC1,1160 nM
15,Cc1ccc(NC2=NC3(CCCC3)N=C(N)N2)c(C)c1,4230 nM
16,O=C(C[C@@H]1C/C=C/CC[C@H](Cc2ccc(F)cc2)C(=O)OC[C@@H](Cc2ccccc2)NC1=O)N[C@H](CO)Cc1ccccc1,4880 nM
17,COc1ccc(NC(=O)C(=O)c2cn(CC(=O)N3CCCC3)c3ccccc23)cc1,105 nM
18,COc1cccc(/C=C2\SC(=S)N(CCC(=O)N3CCCCC3)C2=O)c1,5770 nM
19,COc1ccc(-n2c(NNC(C)=O)nc3sc4c(c3c2=O)CCCC4)cc1,6720 nM
20,CCc1ccc2nc3nc(C)cc(C)c3c(N)c2c1,2810 nM
21,Nc1nc(-c2ccccc2)cc(-c2ccccc2O)n1,4980 nM
22,COc1ccc(Cl)cc1S(=O)(=O)Nc1ccc2c(c1)n(C)c(=O)n2C,1470 nM

row,Structure (SMILES),AC26
1,Cc1c(-c2nc(N)nc(Nc3ccccc3)n2)oc2ccccc12,3890 nM
2,Cc1ccc(Nc2nc(N)nc(CN3CCN(Cc4ccccc4)CC3)n2)cc1Cl,110 nM
3,COc1ccc(OC)c(N(CC(=O)Nc2cccc3ccccc23)S(C)(=O)=O)c1,3100 nM
4,CC(C)(C)c1ccc(OCc2ccc(C(=O)Nc3cccnc3)o2)cc1,7560 nM
5,COc1ccc(-c2cc(C(F)F)n3ncc(C(=O)N4CCc5ccccc54)c3n2)cc1,2500 nM
6,Cn1c(=O)c([N+](=O)[O-])c(-n2ccnc2)c2ccccc21,4170 nM
7,CC(NC(=O)c1ccc2ccccc2n1)c1ccc(S(N)(=O)=O)cc1 (centres undefined),4020 nM
8,OCC1OC(n2cnc3c(SCc4ccccc4)ncnc32)C(O)C1O (centres undefined),1050 nM
9,CCC(C)Nc1nc2ccccc2n2c(C)nnc12 (centres undefined),1500 nM
10,Cc1ccc(N2C(=O)Nc3ccccc3C2(O)C(=O)N2CCN(c3ccccn3)CC2)cc1C (centres undefined),330 nM
11,c1ccc2cc3c(NCCN4CCOCC4)ccnc3cc2c1,515 nM
12,COc1cccc(CNC(=O)COC(=O)c2ccc(-c3ccc(O)cc3)cc2)c1,685 nM
13,O=S(=O)(Cc1ccc(Cl)cc1Cl)c1ccc(Cl)cc1,234 nM
14,O=C(CSc1nnc(-c2cc3ccccc3cc2O)n1Cc1ccco1)N1CCc2ccccc2C1,702 nM
15,Cn1c(=O)[nH]c(=O)c2c1nc(N/N=C/c1cccnc1)n2Cc1ccc(Cl)cc1,1630 nM
16,Cc1ccc(N=Nc2c(N)nn(-c3ccccc3)c2N)cc1,602 nM
17,Cc1ccc(-c2cnc(C3CC3)o2)cc1S(=O)(=O)Nc1ccccc1,9070 nM
18,COc1cc(-c2nc(-c3ccccc3)c(-c3cccs3)[nH]2)cc(OC)c1O,6100 nM
19,CCn1c2ccccc2c2cc(NC(=O)COC(=O)C3CCC(=O)N3)ccc21 (centres undefined),3400 nM
20,Nc1c(N(Cc2ccccc2)C(=O)COc2ccc([N+](=O)[O-])cc2)c(=O)[nH]c(=O)n1Cc1ccccc1,389 nM
21,NC(=O)c1ccc(NC(=O)CN2C(=O)NC(c3ccccc3)(c3ccccc3)C2=O)cc1,3410 nM
22,Cc1cc(NC(=O)NC(=O)c2ccccc2NC(=O)C(C)N)ccc1Oc1ncc(Br)cn1 (centres undefined),1060 nM

row,Structure (SMILES),AC26
1,COc1ccc(/C=N/NC(=O)c2nc(-c3ccccc3)cc(-c3ccccc3)n2)cc1O,685 nM
2,O=C(Nc1ncccc1O)c1ccc(C(=O)c2ccccc2)cc1,5180 nM
3,Cn1nc(-c2ccc(Cl)cc2)c2cc(C(=O)NCCCN3CCOCC3)sc21,4330 nM
4,COc1cc(C(=O)NC2CCN(C)CC2)ccc1Nc1ncc2c(n1)N(CCc1ccccc1)CCC(=O)N2C,396 nM
5,C=C1c2nc3ccccc3n2C=C(c2ccc(C)cc2)N1c1ccccc1,9580 nM
6,COc1cc(-c2nc3ccc(N4CCN(C)CC4)cc3[nH]2)cc(OC)c1OC,535 nM
7,Cc1cc(-n2c(C)cc(C(=O)CCl)c2C)no1,2160 nM
8,CCOc1ccc(S(=O)(=O)NCc2ccccn2)cc1NC(=O)c1ccccc1F,593 nM
9,c1ccc2c(c1)c1c(c3ccccc32)CN2CCCC2C1 (centres undefined),2700 nM
10,CC(=O)Nc1cccc(-c2ccnc3c2CC(C(=O)NCc2cccc(Cl)c2)O3)c1 (centres undefined),9220 nM
11,O=C(NCCCn1ccnc1)c1cc(-c2cccs2)on1,3430 nM
12,COc1ccc(NC(=O)c2cccc3c(-c4ccc(O)c(OC)c4)coc23)cc1,13400 nM
13,COc1ccc(CCn2c(=N)c(S(=O)(=O)c3ccc(C)cc3)cc3c(=O)n4ccccc4nc32)cc1,988 nM
14,CCOc1ccc(NC(=O)C(=O)NCCN2CCN(S(=O)(=O)c3ccc(C)cc3)CC2)cc1,4890 nM
15,COc1ccc(CCn2c(O)c(C=NCc3ccc4c(c3)OCO4)c(=O)[nH]c2=O)cc1OC,3430 nM
16,NS(=O)(=O)c1ccc(NC(=O)c2cccc3cc4ccccc4nc23)cc1,1320 nM
17,Cc1cc(Sc2ccc([N+](=O)[O-])cn2)ccc1Br,6940 nM
18,COc1ccc(S(=O)(=O)N2N=C(C)Oc3ccccc3C2=O)cc1,1250 nM
19,O=C(NCCc1ccccc1)C1c2ccccc2C(=O)N1Cc1cccs1 (centres undefined),2690 nM
20,Cc1cc(C)c2c(N)c3ccccc3nc2n1,762 nM
21,c1ccc(Cc2nnc(Sc3ccccc3)c3ccccc23)cc1,5170 nM
22,O=C(NCCC1=CCCCC1)C1CCC(CNc2nc(=S)[nH]c3ccccc23)CC1 (centres undefined),3920 nM

row,Structure (SMILES),AC26
1,C/C(=N/NC(=O)c1cccs1)c1ccc(NC(=O)COc2ccc(Cl)cc2Cl)cc1,6270 nM
2,O=C(NC(=C(Cl)Cl)S(=O)(=O)c1ccc(Cl)cc1)c1ccccc1,594 nM
3,COc1cc2c(cc1OC)CN(C(=O)c1ccc3nc[nH]c3c1)CC2,6320 nM
4,CCOc1ccc(OCC)c(NC(=O)c2nnn(CC(=O)Nc3cc(C)cc(C)c3)c2N)c1,6440 nM
5,CC(=O)c1cccc(-c2ccnc3c2CC(C(=O)NCc2ccco2)O3)c1 (centres undefined),967 nM
6,c1ccc2c(c1)C1=NCCN1c1ccccc1-2,544 nM
7,CC(=O)Nc1cccc(-c2ccnc3c2CC(C(=O)NCCc2ccccc2)O3)c1 (centres undefined),1910 nM
8,O=C(Nc1ccc2oc(-c3cccnc3)nc2c1)c1ccc([N+](=O)[O-])o1,1130 nM
9,COc1cc(COCC(O)CN2CCN(CCN3C(=O)c4cccc5cccc(c45)C3=O)CC2)cc(OC)c1OC (centres undefined),1230 nM
10,CCN(CC)CCNC(=O)c1cc2c(=O)n(C)c3ccccc3c2s1,3940 nM
11,COc1ccc(OC)c(S(=O)(=O)Nc2ccc(-c3ccc4nnc(C)n4n3)cc2)c1,3190 nM
12,CCn1c(=O)c2cc(C(=O)NCCCOC)sc2c2ccccc21,2460 nM
13,C=CCn1c(O)c(C(CC)=NC(C)c2ccccc2)c(=O)[nH]c1=O (centres undefined),3140 nM
14,CC(=O)c1ccc(Oc2cc(C)nc(-n3nc(C)cc3C)n2)cc1,726 nM
15,CCN(c1cccc(C)c1)S(=O)(=O)c1ccc(-c2cc(C)no2)s1,1270 nM
16,COCCNc1nc(NCc2ccccc2)nc2ccsc12,136 nM
17,CC(CCc1ccccc1)NC(=O)c1ccc(NC(=O)c2ccccc2)cc1 (centres undefined),4540 nM
18,CC1(C)Cc2c(c(N3CCOCC3)nc3snc(N)c23)CO1,502 nM
19,Cc1c(Cl)cccc1Nc1nc(N)nc(CN2CCc3ccccc3C2)n1,320 nM
20,COc1ccc(C(=O)NCc2nnc(SCC(=O)NO)n2Cc2ccccc2)cc1,4440 nM
21,CC1(C(=O)NCc2cccs2)Cc2c(-c3cccc(C(F)(F)F)c3)ccnc2O1 (centres undefined),15100 nM
